# Data published in ChEMBL document CHEMBL3779773, “A unique macrolactam derivative via a [4+6]-cycloaddition from Streptomyces niveus” (Bioorg Med Chem Lett, 2016).
# The source made the active and inactive calls. The calls are words filed in the database; no cut-off is given here.
# How the values were obtained:
# [1] = system: BGC832; assay: Cytotoxicity against human […] cells assessed as cell viability after 24 to 72 hrs by MTT assay; format: functional, cell-based
# [2] = Cytotoxicity against human H460 cells assessed as growth inhibition after 72 hrs by MTT assay; format: functional, cell-based; details: NCI-H460, 72 h
# [3] = system: Aspergillus niger; assay: Antimicrobial activity against Aspergillus niger by micro dilution method; format: functional, organism-based
# [4] = system: Bacillus subtilis; assay: Antimicrobial activity against Bacillus subtilis after 24 hrs using MTT reagent by micro dilution method; format: functional
# [5] = system: HepG2; assay: Cytotoxicity against human HepG2 cells assessed as cell viability after 24 to 72 hrs by MTT assay; format: functional, cell-based
# [6] = system: Caco-2; assay: Cytotoxicity against human Caco2 cells assessed as cell viability at 1.2 to 100 uM by MTT assay; format: functional, cell-based; details: TDE = time-dependent effect
# [7] = system: Caco-2; assay: Cytotoxicity against human Caco2 cells assessed as cell viability after 24 to 72 hrs by MTT assay; format: functional, cell-based
# [8] = system: HepG2; assay: Cytotoxicity against human HepG2 cells assessed as growth inhibition after 72 hrs by MTT assay; format: functional, cell-based; details: HepG2, 72 h
# [9] = Cytotoxicity against human HELF cells assessed as growth inhibition after 72 hrs by MTT assay; format: cell-based
# [10] = Cytotoxicity against human […] cells assessed as growth inhibition after 72 hrs by MTT assay; format: functional, cell-based
# [11] = system: BGC832; assay: Cytotoxicity against human […] cells assessed as cell viability at 1.2 to 100 uM by MTT assay; format: functional, cell-based; details: TDE = time-dependent effect
# [12] = system: Candida albicans; assay: Antimicrobial activity against Candida albicans by micro dilution method; format: functional, organism-based
# [13] = system: HCT-116; assay: Cytotoxicity against human HCT116 cells assessed as cell viability after 24 to 72 hrs by MTT assay; format: functional, cell-based
# [14] = system: NCI-H460; assay: Cytotoxicity against human H460 cells assessed as cell viability at 1.2 to 100 uM by MTT assay; format: functional, cell-based; details: TDE = time-dependent effect
# [15] = system: Escherichia coli; assay: Antimicrobial activity against Escherichia coli after 24 hrs using MTT reagent by micro dilution method; format: functional, organism-based
# [16] = Cytotoxicity against human Caco2 cells assessed as growth inhibition after 72 hrs by MTT assay; format: functional, cell-based; details: Caco-2, 72 h
# [17] = system: HepG2; assay: Cytotoxicity against human HepG2 cells assessed as cell viability at 1.2 to 100 uM by MTT assay; format: functional, cell-based; details: TDE = time-dependent effect
# [18] = system: NCI-H460; assay: Cytotoxicity against human H460 cells assessed as cell viability after 24 to 72 hrs by MTT assay; format: functional, cell-based
# [19] = system: HCT-116; assay: Cytotoxicity against human HCT116 cells assessed as cell viability at 1.2 to 100 uM by MTT assay; format: functional, cell-based; details: TDE = time-dependent effect
# [20] = Cytotoxicity against human HCT116 cells assessed as growth inhibition after 72 hrs by MTT assay; format: functional, cell-based; details: HCT-116, 72 h
# [21] = system: Staphylococcus aureus; assay: Antimicrobial activity against Staphylococcus aureus after 24 hrs using MTT reagent by micro dilution method; format: functional, organism-based
# [22] = Acute toxicity in ip dosed mouse; format: organism-based; details: in vivo
compound,measurement,setting,value
CCC/C=C/CC1CC(O)[C@@H](O)[C@@H]2/C(C)=C/[C@H]3C=C[C@H]4O[C@H]4[C@@H]3/C(C)=C/C=C\[C@@H]2C(=O)N1 (some centres not stated),Activity,[1],Dose-dependent effect
same,IC50,[2],3.76 µM
same,Activity,[3],inactive
same,MIC,[4],43.9 µg/mL
same,Activity,[5],Dose-dependent effect
same,Activity,[6],tde
same,Activity,[7],Dose-dependent effect
same,IC50,[8],15 µM
same,IC50,[9],46.5 µM
same,IC50,[10],13.1 µM
same,Activity,[11],tde
same,Activity,[12],inactive
same,Activity,[13],Dose-dependent effect
same,Activity,[14],tde
same,Activity,[15],inactive
same,IC50,[16],15 µM
same,Activity,[17],tde
same,Activity,[18],Dose-dependent effect
same,Activity,[19],tde
same,IC50,[20]; read-out: IC50,8.03 µM
same,Activity,[21],inactive
CCCCCCC1CC(=O)CCCC(O)CC(=O)C2=C(O)C(OC3CC(OC)C(O)C(C)O3)CC2\C=C(C)/C=C/C=C/C(=O)N1 (configuration not stated),LD50,[22],> 100 mg/kg
COc1cccc2c1C(=O)c1c(O)c3c(c(O)c1C2=O)C[C@@](O)(C(=O)CO)C[C@@H]3O[C@H]1C[C@H](N)[C@H](O)[C@H](C)O1 [DOXORUBICIN],IC50,[2],0.98 µM
same,IC50,[9],7.31 µM
same,IC50,[10],1.48 µM
same,IC50,[16],0.96 µM
same,IC50,[20],0.74 µM
